Measured values: US10125182B2, “Peptides hormone analogues derivable from preproglucagon” (IMPERIAL INNOVATIONS LIMITED, priority 2014, dated 2018)
Ends that are not written are not given here.

Experiments:
Type in all cases: in vivo
[1] = Mice feeding studies: cumulative food intake after subcutaneous administration; conditions: mice fasted 16 h, over 48 hours
Description: Male C57BL/6 mice (Harlan) or male Wistar rats (Charles River Ltd, Margate, UK) were used for all animal experiments.
Mice were individually housed in IVC cages. Animals were randomised into treatment groups, with stratification by body weight. Mice were fasted overnight (16 hrs) prior to peptide or vehicle administration. All peptide solutions were prepared freshly, immediately prior to administration. The vehicle used for all studies was 5% v/v water and 95% v/v sodium chloride (0.9% w/v). Peptide and vehicle were administered by subcutaneous injection, with dosage corrected for bodyweight. The injection volume was […]. […] Food intake was measured at 24 and 48 hours post injection. All statistics are calculated using a one-way ANOVA with Dunnett's post-test or one-way ANOVA with Bonferroni post-test.
Peptide hormone analogues of the invention (G1698 [SEQ ID NO 1], 500 nmol/kg dosage, reconstituted in saline, and G1718 [SEQ ID NO 6], 200 nmol/kg dosage, reconstituted in saline), comparator compounds (G1697, 500 nmol/kg dosage, reconstituted in saline, and G1717, 200 nmol/kg dosage, reconstituted in saline), or saline (vehicle control group) were administered subcutaneously to mice (group size 4-6 animals). […] Food intake (in grams) was measured at time intervals over 48 hours.

[2] = Mice feeding studies: body weight increase over 7 days; conditions: 200 nmol/kg subcutaneous in saline, compared with comparator having only His30-His31-His32 (G1721 or G1779; FIGS. 4, 5)
[3] = Rat pharmacokinetic studies: plasma concentration after subcutaneous injection with ZnCl2 (radioimmunoassay); conditions: 4 rats, 2 mg of each compound in 20 μl aqueous ZnCl2 at 1:1 molar ratio, 3 days (FIG. 7)
Description: Male C57BL/6 mice (Harlan) or male Wistar rats (Charles River Ltd, Margate, UK) were used for all animal experiments. The pharmacokinetics of a peptide hormone analogue of the invention in rat was evaluated over 7 days. 4 rats were injected subcutaneously with the peptide hormone analogue G2051 [SEQ ID NO 197]. Each injection was of […] total volume/rat containing 2 mg peptide and 1 zinc ion (as ZnCl2) per peptide molecule. Blood was collected at the indicated time points, and the concentration of the peptide hormone analogue was determined. Peptide levels were assessed by/using radioimmunoassay using R4 exendin-4 antibody. […] 4 rats were injected subcutaneously with the peptide hormone analogue G2051 [SEQ ID NO 197]. Each injection was of 20 μl total volume/rat containing 2 mg peptide and 1 zinc ion (as ZnCl2) per peptide molecule. Blood was collected at the indicated time points, and the concentration of the comparator compound was determined. Peptide levels were assessed by/using radioimmunoassay using R4 exendin-4 antibody.

Substance	initial increase or spike in plasma concentration level [3]	also measured
G1698: peptide hormone analogue of the invention; C-terminal extension His30-His31-His32-His33; full sequence only in FIG. 1 (HSQGTFTSDYSKYLDERRAHEFIEWLLNGHHHH; hormone analogue)		reduction of cumulative food intake relative to saline control ([1]; 500 nmol/kg subcutaneous in saline, compared with comparator G1697 (FIG. 2)): more potent and more sustained reduction
G1718: peptide hormone analogue of the invention; C-terminal extension His30-His31-His32-His33; full sequence only in FIG. 1 (HSQGTFTSDYSHYLDQRRAHEFIQWLLNGHHHH; hormone analogue)		reduction of cumulative food intake relative to saline control ([1]; 200 nmol/kg subcutaneous in saline, compared with comparator G1717 (FIG. 3)): more potent and more sustained reduction
G1722: peptide hormone analogue of the invention; C-terminal extension His30-His31-His32-His33; full sequence only in FIG. 1 (HSQGTFTSDYSHYLDSKRAHEFIQWLLNGHHHH; hormone analogue)		reduction of body weight increase relative to saline control [2]: more potent and more sustained reduction
G1781: peptide hormone analogue of the invention; full sequence only in FIG. 1 (HSQGTFTSDYSKYLDERRAHEFIEWLLNGGHHHH; hormone analogue)		reduction of body weight increase relative to saline control [2]: more potent and more sustained reduction
HSQGTFTSDYSKYLDHRRAKDFVQWLMNT-NH2 [G94]	initial increase or “spike” in plasma concentration level is observed	
HSQGTFTSDYSKYLDSKKAQEFVEWLMNT [G202]	initial increase or “spike” in plasma concentration level is observed	
HSQGTFTSDYSKYLDSKKAQEFVQWLLNT [G162]	initial increase or “spike” in plasma concentration level is observed	
HSQGTFTSDYSKYLDSKKAQEFVQWLMNT-NH2 [G200]	initial increase or “spike” in plasma concentration level is observed	
